From BindingDB's records for doi:10.1021/jm950568w (Universita Di Roma, 1996)

Each compound was assayed against T1, Gag-Pol polyprotein [588-1027]/[588-1147] (Human immunodeficiency virus 1, UniProt P04585) (assay: HIV RT Assay). Settings: pH 7.8; 37 °C.
T1 construct: 588-1027; 588-1147

| SMILES | IC50 |
| --- | --- |
| CCOC(=O)c1cccn1S(=O)(=O)c1cc(Cl)ccc1NC=O [Ethyl 1-[(5-Chloro-2-formamidophenyl)sulfonyl]-1Hpyrrole-2-carboxylate] | > 20 µM |
| CCOC(=O)c1cccn1S(=O)(=O)c1cc(Cl)ccc1NC(=O)CC [Ethyl 1-[(5-Chloro-2-propionamidophenyl)sulfonyl]-1H-pyrrole-2-carboxylate] | > 20 µM |
| CCOC(=O)c1cccn1S(=O)(=O)c1cc(Cl)ccc1NC(C)=O [ethyl 1-[(5-chloro-2-acetamidobenzene)sulfonyl]-1H-pyrrole-2-carboxylate] | > 20 µM |
| CCOC(=O)CC(=O)Nc1ccc(Cl)cc1S(=O)(=O)n1cccc1C(=O)OCC [ethyl 1-{[5-chloro-2-(ethyl 2-formamidoacetate)benzene]sulfonyl}-1H-pyrrole-2-carboxylate] | > 20 µM |

These compounds were tested against T2, Gag-Pol polyprotein [613-1167,R896S,E946D,S1117V]/[618-1043,R896S,E946D] (Human immunodeficiency virus 2, UniProt P04584, E946D/R896S/S1117V) (assay: HIV RT Assay). Settings: pH 7.8; 37 °C.
T2 construct: 613-1167; 618-1043
T2 sequence (P04584 613-1167, looked up, stated change not applied): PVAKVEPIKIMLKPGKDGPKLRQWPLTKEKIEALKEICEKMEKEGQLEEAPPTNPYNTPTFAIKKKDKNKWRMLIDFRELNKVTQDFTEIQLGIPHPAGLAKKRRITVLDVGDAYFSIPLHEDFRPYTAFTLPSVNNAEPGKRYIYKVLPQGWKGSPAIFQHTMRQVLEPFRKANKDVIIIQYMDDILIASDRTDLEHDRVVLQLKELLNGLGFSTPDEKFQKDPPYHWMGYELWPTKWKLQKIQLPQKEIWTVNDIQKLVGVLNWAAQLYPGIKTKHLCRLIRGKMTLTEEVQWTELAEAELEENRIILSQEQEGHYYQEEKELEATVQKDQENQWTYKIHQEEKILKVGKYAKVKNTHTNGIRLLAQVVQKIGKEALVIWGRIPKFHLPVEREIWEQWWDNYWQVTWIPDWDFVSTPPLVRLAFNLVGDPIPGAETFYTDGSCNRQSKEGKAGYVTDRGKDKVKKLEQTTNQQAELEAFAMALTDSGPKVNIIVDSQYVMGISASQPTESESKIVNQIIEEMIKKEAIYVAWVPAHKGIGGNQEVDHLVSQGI
T2 sequence (P04584 618-1043, looked up, stated change not applied): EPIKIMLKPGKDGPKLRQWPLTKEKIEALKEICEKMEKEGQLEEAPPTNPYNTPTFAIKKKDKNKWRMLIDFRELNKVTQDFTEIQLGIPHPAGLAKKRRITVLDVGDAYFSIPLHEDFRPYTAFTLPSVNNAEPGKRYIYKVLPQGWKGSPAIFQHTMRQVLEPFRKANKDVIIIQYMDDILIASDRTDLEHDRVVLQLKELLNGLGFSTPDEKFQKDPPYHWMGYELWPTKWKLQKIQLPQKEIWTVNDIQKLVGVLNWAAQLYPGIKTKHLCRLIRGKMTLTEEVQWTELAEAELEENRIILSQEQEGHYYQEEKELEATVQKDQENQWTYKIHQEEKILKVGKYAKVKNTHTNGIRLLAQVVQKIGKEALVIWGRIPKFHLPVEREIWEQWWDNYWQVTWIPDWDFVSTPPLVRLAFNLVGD

| SMILES | IC50 |
| --- | --- |
| Cc1ccnc2c1NC(=O)c1cccnc1N2C1CC1 [BI-RG-587] | > 20 µM |
| COC(=O)c1cccn1S(=O)(=O)c1cc(Cl)ccc1N [methyl 1-[(2-amino-5-chlorobenzene)sulfonyl]-1H-pyrrole-2-carboxylate] | > 20 µM |
| CCOC(=O)c1cccn1S(=O)(=O)c1cc(Cl)ccc1N [ethyl 1-[(2-amino-5-chlorobenzene)sulfonyl]-1H-pyrrole-2-carboxylate] | > 20 µM |
